Assay results from BigSolDB 2.1.

**Q.** With `O=c1[nH]c2ccccc2c(=O)o1` as the compound, how does the solubility (mole fraction) (in 1,4-dioxane, 288.15 K) read?
**A.** 0.00839

**Q.** What about the solubility (mole fraction) (in 1,4-dioxane, 293.15 K) of the same compound?
**A.** 0.00944

**Q.** What about the solubility (mole fraction) (in 1,4-dioxane, 298.15 K) of the same compound?
**A.** 0.0107

**Q.** And the solubility (mole fraction) (in 1,4-dioxane, 303.15 K)?
**A.** 0.0119

**Q.** And the solubility (mole fraction) (in 1,4-dioxane, 308.15 K)?
**A.** 0.0133

**Q.** What about the solubility (mole fraction) (in 1,4-dioxane, 313.15 K) of the same compound?
**A.** 0.0146

**Q.** And the solubility (mole fraction) (in 1,4-dioxane, 323.15 K)?
**A.** 0.0179

**Q.** And the solubility (mole fraction) (in 1,4-dioxane, 328.15 K)?
**A.** 0.0198

**Q.** And the solubility (mole fraction) (in 2-butanone, 288.15 K)?
**A.** 0.00741

**Q.** What about the solubility (mole fraction) (in 2-butanone, 293.15 K) of the same compound?
**A.** 0.00805

**Q.** And the solubility (mole fraction) (in 2-butanone, 298.15 K)?
**A.** 0.00877

**Q.** And the solubility (mole fraction) (in 2-butanone, 303.15 K)?
**A.** 0.00964

**Q.** And the solubility (mole fraction) (in 2-butanone, 308.15 K)?
**A.** 0.0107

**Q.** And the solubility (mole fraction) (in 2-butanone, 313.15 K)?
**A.** 0.0117

**Q.** What about the solubility (mole fraction) (in 2-butanone, 318.15 K) of the same compound?
**A.** 0.0129

**Q.** What about the solubility (mole fraction) (in 2-butanone, 323.15 K) of the same compound?
**A.** 0.014

**Q.** What about the solubility (mole fraction) (in 2-butanone, 328.15 K) of the same compound?
**A.** 0.0153

**Q.** And the solubility (mole fraction) (in acetone, 288.15 K)?
**A.** 0.00794

**Q.** What about the solubility (mole fraction) (in acetone, 293.15 K) of the same compound?
**A.** 0.00873

**Q.** What about the solubility (mole fraction) (in acetone, 298.15 K) of the same compound?
**A.** 0.00965

**Q.** What about the solubility (mole fraction) (in acetone, 303.15 K) of the same compound?
**A.** 0.0109

**Q.** What about the solubility (mole fraction) (in acetone, 308.15 K) of the same compound?
**A.** 0.0122

**Q.** And the solubility (mole fraction) (in acetone, 313.15 K)?
**A.** 0.0135

**Q.** And the solubility (mole fraction) (in acetone, 318.15 K)?
**A.** 0.0149

**Q.** What about the solubility (mole fraction) (in acetone, 323.15 K) of the same compound?
**A.** 0.0165

**Q.** And the solubility (mole fraction) (in acetone, 328.15 K)?
**A.** 0.0184

**Q.** What about the solubility (mole fraction) (in acetonitrile, 288.15 K) of the same compound?
**A.** 0.003

**Q.** What about the solubility (mole fraction) (in acetonitrile, 293.15 K) of the same compound?
**A.** 0.0033

**Q.** What about the solubility (mole fraction) (in acetonitrile, 298.15 K) of the same compound?
**A.** 0.00374

**Q.** What about the solubility (mole fraction) (in acetonitrile, 303.15 K) of the same compound?
**A.** 0.0043

**Q.** And the solubility (mole fraction) (in acetonitrile, 308.15 K)?
**A.** 0.00485

**Q.** And the solubility (mole fraction) (in acetonitrile, 313.15 K)?
**A.** 0.00553

**Q.** What about the solubility (mole fraction) (in acetonitrile, 318.15 K) of the same compound?
**A.** 0.00624

**Q.** What about the solubility (mole fraction) (in acetonitrile, 323.15 K) of the same compound?
**A.** 0.00712

**Q.** And the solubility (mole fraction) (in acetonitrile, 328.15 K)?
**A.** 0.00797

**Q.** And the solubility (mole fraction) (in ethanol, 288.15 K)?
**A.** 0.00134

**Q.** What about the solubility (mole fraction) (in ethanol, 293.15 K) of the same compound?
**A.** 0.0015

**Q.** What about the solubility (mole fraction) (in ethanol, 298.15 K) of the same compound?
**A.** 0.00175

**Q.** What about the solubility (mole fraction) (in ethanol, 303.15 K) of the same compound?
**A.** 0.00201

**Q.** And the solubility (mole fraction) (in ethanol, 308.15 K)?
**A.** 0.00239

**Q.** And the solubility (mole fraction) (in ethanol, 313.15 K)?
**A.** 0.00277

**Q.** And the solubility (mole fraction) (in ethanol, 318.15 K)?
**A.** 0.00328

**Q.** What about the solubility (mole fraction) (in ethanol, 323.15 K) of the same compound?
**A.** 0.00381

**Q.** And the solubility (mole fraction) (in ethanol, 328.15 K)?
**A.** 0.00439

**Q.** And the solubility (mole fraction) (in ethyl acetate, 288.15 K)?
**A.** 0.0032

**Q.** What about the solubility (mole fraction) (in ethyl acetate, 293.15 K) of the same compound?
**A.** 0.00352

**Q.** And the solubility (mole fraction) (in ethyl acetate, 298.15 K)?
**A.** 0.00389

**Q.** What about the solubility (mole fraction) (in ethyl acetate, 303.15 K) of the same compound?
**A.** 0.00434

**Q.** What about the solubility (mole fraction) (in ethyl acetate, 308.15 K) of the same compound?
**A.** 0.00482

**Q.** And the solubility (mole fraction) (in ethyl acetate, 313.15 K)?
**A.** 0.00533

**Q.** What about the solubility (mole fraction) (in ethyl acetate, 318.15 K) of the same compound?
**A.** 0.00582

**Q.** And the solubility (mole fraction) (in ethyl acetate, 323.15 K)?
**A.** 0.00636

**Q.** What about the solubility (mole fraction) (in ethyl acetate, 328.15 K) of the same compound?
**A.** 0.00694

**Q.** What about the solubility (mole fraction) (in isopropanol, 288.15 K) of the same compound?
**A.** 0.00104

**Q.** And the solubility (mole fraction) (in isopropanol, 293.15 K)?
**A.** 0.00121

**Q.** And the solubility (mole fraction) (in isopropanol, 298.15 K)?
**A.** 0.00144

**Q.** What about the solubility (mole fraction) (in isopropanol, 303.15 K) of the same compound?
**A.** 0.00176

**Q.** What about the solubility (mole fraction) (in isopropanol, 308.15 K) of the same compound?
**A.** 0.00216

**Q.** And the solubility (mole fraction) (in isopropanol, 313.15 K)?
**A.** 0.00265

**Q.** And the solubility (mole fraction) (in isopropanol, 318.15 K)?
**A.** 0.00316

**Q.** What about the solubility (mole fraction) (in isopropanol, 323.15 K) of the same compound?
**A.** 0.0038

**Q.** What about the solubility (mole fraction) (in isopropanol, 328.15 K) of the same compound?
**A.** 0.00457

**Q.** What about the solubility (mole fraction) (in isopropyl acetate, 288.15 K) of the same compound?
**A.** 0.00185

**Q.** What about the solubility (mole fraction) (in isopropyl acetate, 293.15 K) of the same compound?
**A.** 0.00206

**Q.** What about the solubility (mole fraction) (in isopropyl acetate, 298.15 K) of the same compound?
**A.** 0.00234

**Q.** What about the solubility (mole fraction) (in isopropyl acetate, 303.15 K) of the same compound?
**A.** 0.00256

**Q.** And the solubility (mole fraction) (in isopropyl acetate, 308.15 K)?
**A.** 0.00291

**Q.** What about the solubility (mole fraction) (in isopropyl acetate, 313.15 K) of the same compound?
**A.** 0.00325

**Q.** And the solubility (mole fraction) (in isopropyl acetate, 318.15 K)?
**A.** 0.0036

**Q.** What about the solubility (mole fraction) (in isopropyl acetate, 323.15 K) of the same compound?
**A.** 0.00396

**Q.** And the solubility (mole fraction) (in isopropyl acetate, 328.15 K)?
**A.** 0.00434

**Q.** What about the solubility (mole fraction) (in methanol, 288.15 K) of the same compound?
**A.** 0.00149

**Q.** What about the solubility (mole fraction) (in methanol, 293.15 K) of the same compound?
**A.** 0.00173

**Q.** What about the solubility (mole fraction) (in methanol, 298.15 K) of the same compound?
**A.** 0.00204

**Q.** What about the solubility (mole fraction) (in methanol, 303.15 K) of the same compound?
**A.** 0.00243

**Q.** And the solubility (mole fraction) (in methanol, 308.15 K)?
**A.** 0.00295

**Q.** And the solubility (mole fraction) (in methanol, 313.15 K)?
**A.** 0.00354

**Q.** And the solubility (mole fraction) (in methanol, 318.15 K)?
**A.** 0.00425

**Q.** And the solubility (mole fraction) (in methanol, 323.15 K)?
**A.** 0.00507

**Q.** And the solubility (mole fraction) (in methanol, 328.15 K)?
**A.** 0.00606

**Q.** And the solubility (mole fraction) (in methyl acetate, 288.15 K)?
**A.** 0.00415

**Q.** What about the solubility (mole fraction) (in methyl acetate, 293.15 K) of the same compound?
**A.** 0.00464

**Q.** And the solubility (mole fraction) (in methyl acetate, 298.15 K)?
**A.** 0.00517

**Q.** What about the solubility (mole fraction) (in methyl acetate, 303.15 K) of the same compound?
**A.** 0.00573

**Q.** And the solubility (mole fraction) (in methyl acetate, 308.15 K)?
**A.** 0.00634

**Q.** And the solubility (mole fraction) (in methyl acetate, 313.15 K)?
**A.** 0.00699

**Q.** What about the solubility (mole fraction) (in methyl acetate, 318.15 K) of the same compound?
**A.** 0.00768

**Q.** What about the solubility (mole fraction) (in methyl acetate, 323.15 K) of the same compound?
**A.** 0.00844

**Q.** And the solubility (mole fraction) (in methyl acetate, 328.15 K)?
**A.** 0.00937

**Q.** And the solubility (mole fraction) (in n-propanol, 288.15 K)?
**A.** 0.00116

**Q.** And the solubility (mole fraction) (in n-propanol, 293.15 K)?
**A.** 0.00133

**Q.** And the solubility (mole fraction) (in n-propanol, 298.15 K)?
**A.** 0.00152

**Q.** What about the solubility (mole fraction) (in n-propanol, 303.15 K) of the same compound?
**A.** 0.00181

**Q.** And the solubility (mole fraction) (in n-propanol, 308.15 K)?
**A.** 0.00208

**Q.** And the solubility (mole fraction) (in n-propanol, 313.15 K)?
**A.** 0.0025

**Q.** What about the solubility (mole fraction) (in n-propanol, 318.15 K) of the same compound?
**A.** 0.00291

**Q.** What about the solubility (mole fraction) (in n-propanol, 323.15 K) of the same compound?
**A.** 0.00341

**Q.** What about the solubility (mole fraction) (in n-propanol, 328.15 K) of the same compound?
**A.** 0.00394

**Q.** And the solubility (mole fraction) (in n-propyl acetate, 288.15 K)?
**A.** 0.00229

**Q.** What about the solubility (mole fraction) (in n-propyl acetate, 293.15 K) of the same compound?
**A.** 0.00255

**Q.** What about the solubility (mole fraction) (in n-propyl acetate, 298.15 K) of the same compound?
**A.** 0.00285

**Q.** What about the solubility (mole fraction) (in n-propyl acetate, 303.15 K) of the same compound?
**A.** 0.00318

**Q.** And the solubility (mole fraction) (in n-propyl acetate, 308.15 K)?
**A.** 0.00351

**Q.** What about the solubility (mole fraction) (in n-propyl acetate, 313.15 K) of the same compound?
**A.** 0.00394

**Q.** And the solubility (mole fraction) (in n-propyl acetate, 318.15 K)?
**A.** 0.00434

**Q.** And the solubility (mole fraction) (in n-propyl acetate, 323.15 K)?
**A.** 0.00477

**Q.** And the solubility (mole fraction) (in n-propyl acetate, 328.15 K)?
**A.** 0.00534
